Data on seven molecules can be found in ChEMBL document CHEMBL1201862, “PubChem BioAssay data set” (2004).

Some test systems named below: A498; A549; ACHN; CAKI-1; HT-29; Hs-578T; K562; KM12; LOX IMVI; M14; Malme-3M; NCI-H23; NCI/ADR-RES; OVCAR-5; PC-3; SK-OV-3; SNB-75; SR; SW-620; UACC-62.
Experiment in all cases: NCI tumour cell line growth inhibition, 48 h

The structures appear in SMILES notation. Counter-ions that a name gives are not always drawn.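 Test compounds were applied to cells in 96-well plates for 48 hours at 5 doses. The concentration for 50% growth inhibition is given as GI50.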 The source made the active and inactive calls. No stated cut-off is given here; in the data, active = GI50 up to about 1.1 µM and inactive = higher. Some results are limits rather than exact numbers.

As for `O=C(O)C(Oc1nc(S)nc(S)n1)(c1ccc(Cl)cc1)c1ccc(Cl)cc1`, the GI50 with A498, in the test on A549, in the test with ACHN, with CAKI-1, in the test on HT-29 and in the test on Hs-578T was > 100 µM (inactive) each time. Further, the GI50 with K562, with KM12, in the test with LOX IMVI, in the test with M14, in the test with Malme-3M and in the test on NCI-H23 was > 100 µM (inactive) each time. The GI50 in the test with NCI/ADR-RES, with OVCAR-5, in the test with PC-3, with SK-OV-3, in the test on SNB-75 and with SR was > 100 µM (inactive) each time. In addition, the GI50 with SW-620 and in the test on UACC-62 was > 100 µM (inactive) each time.
Turning to `O=C(Nc1ccc2nc(-c3ccccc3)cn2c1)Oc1ccccc1`, the GI50 with A498 was 71.3 µM (inactive); in the test on A549 it was 55.5 µM (inactive); in the test on ACHN it was > 100 µM (inactive); in the test on CAKI-1, 97.9 µM (inactive); in the test on HT-29, 43.1 µM (inactive); with Hs-578T it was > 100 µM (inactive). Also, the GI50 in the test on K562 is 34.6 µM (inactive); with KM12, 24.9 µM (inactive); in the test with LOX IMVI, 52 µM (inactive); with M14, 39.2 µM (inactive); in the test with Malme-3M it was 98.2 µM (inactive); in the test with NCI-H23, 99.1 µM (inactive). The GI50 in the test with NCI/ADR-RES is 33.8 µM (inactive); with OVCAR-5 it was 78.2 µM (inactive); with PC-3, > 100 µM (inactive); in the test with SK-OV-3, > 100 µM (inactive); in the test on SNB-75 it was 2.99 µM (inactive); with SR, 19 µM (inactive). Moreover, the figures for the GI50 with SW-620 and with UACC-62 were 48.6 µM (inactive) and 37.9 µM (inactive), respectively.
Consider `C=C1CC(CN2CCC(=O)NC2=O)(c2ccccc2)OC1=O` (stereo not drawn), for which the GI50 in the test on A498 was 19.2 µM (inactive); in the test with A549, 16.9 µM (inactive); in the test with ACHN, 9.16 µM (inactive); in the test on CAKI-1 it was 2.75 µM (inactive); in the test on HT-29, 7.71 µM (inactive); in the test on Hs-578T, 16.1 µM (inactive). For the same molecule, the GI50 is 2.39 µM (inactive) with K562; 20.9 µM (inactive) in the test with KM12; 3.75 µM (inactive) with LOX IMVI; 3.08 µM (inactive) in the test on M14; 3.53 µM (inactive) with Malme-3M; 7.18 µM (inactive) in the test on NCI-H23. Also, the GI50 is 11.6 µM (inactive) with NCI/ADR-RES; 15.1 µM (inactive) in the test with OVCAR-5; 16.1 µM (inactive) in the test with PC-3; 16.5 µM (inactive) with SK-OV-3; 18.1 µM (inactive) in the test on SNB-75; 2.09 µM (inactive) in the test with SR. The GI50 is 1.94 µM (inactive) in the test on SW-620 and 8.55 µM (inactive) in the test on UACC-62.
With `CC1=C(C(=O)Nc2ccccc2)C(c2ccc(N(C)C)cc2)C(C(=O)Nc2ccccc2)=C(C)N1`, the GI50 is > 100 µM (inactive) in the test with A498; 3.31 µM (inactive) in the test on A549; 0.494 µM (active) with ACHN; 25.3 µM (inactive) in the test on CAKI-1; 3.72 µM (inactive) in the test with HT-29; > 100 µM (inactive) in the test on Hs-578T. Also, the GI50 with K562 was 1.09 µM (active); with KM12, 0.964 µM (active); with LOX IMVI, 2.82 µM (inactive); in the test with M14, 1.5 µM (inactive); with Malme-3M, 4.79 µM (inactive); in the test on NCI-H23, 24.9 µM (inactive). The GI50 is > 100 µM (inactive) in the test with NCI/ADR-RES; 18.6 µM (inactive) in the test on OVCAR-5; 4.08 µM (inactive) in the test on PC-3; 59.2 µM (inactive) in the test with SK-OV-3; 35.6 µM (inactive) in the test with SNB-75; 11.1 µM (inactive) with SR. The GI50 in the test with SW-620 was 13.7 µM (inactive); with UACC-62, 0.2 µM (active).
Turning to `O=S1(=O)NC2CCC3NS(=O)(=O)NC4CCC(N1)N4S(=O)(=O)N23` (stereo not drawn), the GI50 in the test on A498, in the test on A549, in the test with ACHN, in the test on CAKI-1, with HT-29 and in the test on Hs-578T was > 100 µM (inactive) each time. For the same molecule, the GI50 in the test with K562, in the test on KM12, in the test with LOX IMVI, in the test on M14, in the test on Malme-3M and in the test on NCI-H23 was > 100 µM (inactive) each time. For the same molecule, the GI50 with NCI/ADR-RES, in the test with OVCAR-5, with PC-3, with SK-OV-3, in the test with SNB-75 and with SR was > 100 µM (inactive) in each case. The GI50 in the test on SW-620 and in the test with UACC-62 was > 100 µM (inactive) in each case.
For `CCCCCCCCCC[C@@H](O)[C@@H]1CC[C@@H]([C@@H]2CC[C@@H]([C@@H](O)CCCCCCCCCC[C@H](O)CC3=CC(C)OC3=O)O2)O1` (stereo partly drawn), the GI50 with A498 was 1.7 µM (inactive); in the test with A549, 1.73 µM (inactive); in the test on ACHN, 0.0355 µM (active); in the test with CAKI-1, 12.1 µM (inactive); with HT-29, 2.51 µM (inactive); in the test on Hs-578T, 4.04 µM (inactive). For the same molecule, the GI50 with K562 was 0.0318 µM (active); in the test on KM12, 2.16 µM (inactive); in the test on LOX IMVI it was 0.834 µM (active); with M14, 3.71 µM (inactive); with Malme-3M, 1.79 µM (inactive); in the test on NCI/ADR-RES, 0.256 µM (active). Besides, the GI50 was 9.25 µM (inactive) in the test with OVCAR-5; 2.34 µM (inactive) with PC-3; 3.92 µM (inactive) in the test with SK-OV-3; 3.33 µM (inactive) in the test on SNB-75; 2.05 µM (inactive) in the test on SR; 3.78 µM (inactive) in the test with SW-620. Further, the GI50 with UACC-62 is 1.44 µM (inactive).
With `CN[C@@H]1[C@H](O)[C@H](NC)[C@H]2O[C@@]3(O)C(=O)C[C@@H](C)O[C@H]3O[C@@H]2[C@H]1O` [SPECTINOMYCIN SULFATE], the GI50 with A498, in the test on ACHN, with CAKI-1, in the test with HT-29, in the test on Hs-578T and with K562 was > 100 µM (inactive) in each case. Besides, the GI50 in the test with KM12, in the test on LOX IMVI, with M14, in the test with Malme-3M, with NCI-H23 and with NCI/ADR-RES was > 100 µM (inactive) each time. Besides, the GI50 in the test with OVCAR-5, in the test with PC-3, in the test on SK-OV-3, with SNB-75, with SR and in the test on SW-620 was > 100 µM (inactive) in each case. Also, the GI50 in the test with UACC-62 was > 100 µM (inactive).
